What was measured:
[1] = Plasma stability of prodrugs (bioconversion to parent drug); type: in vitro ADME
Description: Approximately 1 mg/mL of stock solution of each prodrug was prepared in 100 μL of ethanol and 900 μL of acetonitrile. Next, 10 μL of stock was spiked into 1 mL of plasma and vortexed. The samples were kept sealed in an amber vial and samples were obtained to analyze for bioconversion to parent drug.
An approximated 1 mg/mL stock solution of each prodrug was prepared in 100 μL of ethanol and 900 μL of acetonitrile. Next, 10 μL of stock was spiked into 1 mL of plasma and vortexed. The samples were kept sealed in an amber vial and samples were obtained to analyze for bioconversion to parent drug.
Approximately 1 mg/mL of stock solution of each prodrug was prepared in 100 μL of ethanol and 900 μL of acetonitrile. Ten μL of stock was spiked into 1 mL of plasma and vortexed. The samples were kept sealed in an amber vial and samples were obtained to analyze for bioconversion to parent drug.

[2] = In vitro human skin permeation, flow-through diffusion cells; details: for Flux enhancement: total THC equivalents
[3] = Table 2, 100% PG donor solution, analyte: THC or intact prodrug (PD)
[4] = Table 4, gel formulation, analyte: THC from prodrug
[5] = Table 4, gel formulation, analyte: THC or intact prodrug (PD)
[6] = Table 17, 90:8:2 PG:H2O:IPM donor solution, analyte: THC from prodrug
[7] = Table 17, 90:8:2 PG:H2O:IPM donor solution, analyte: THC or intact prodrug as applied
[8] = Table 17, 90:8:2 PG:H2O:IPM donor solution
[9] = Table 17, 90:8:2 PG:H2O:IPM donor solution, total THC equivalents (THC and/or prodrug)
[10] = Table 3, 1:1:1 PG:ethanol:H2O donor solution, analyte: THC or intact prodrug (PD)
[11] = Table 9, 2.36:1.18:1 pH = 5.5 PG:ethanol:H2O donor solution, analyte: THC or intact prodrug as applied
[12] = Table 19, 90:8:2 PG:H2O:IPM donor solution, analyte: THC or intact prodrug as applied
[13] = Table 3, 1:1:1 PG:ethanol:H2O donor solution
[14] = Table 5, 1:1:1 PG:ethanol:H2O donor solution and higher flow rate
[15] = Table 6, 1:1:1 PG:ethanol:H2O donor solution, receiver fluid 25% aqueous ethanol
[16] = Table 6, 1:1:1 PG:ethanol:H2O donor solution, receiver fluid 40% aqueous PEG 400
[17] = Table 7, 2.36:1.18:1 PG:ethanol:H2O donor solution, analyte: THC or intact prodrug as applied
[18] = Table 8, gel formulation, analyte: THC or intact prodrug as applied
[19] = Table 10, 2.36:1.18:1 pH = 5.5 PG:ethanol:H2O donor solution, analyte: THC or intact prodrug as applied
[20] = Table 13, gel formulation with 40% aqueous PEG 400 receiver fluid, analyte: THC or intact prodrug as applied
[21] = Table 18, 90:8:2 PG:H2O:IPM donor solution, analyte: THC or intact prodrug as applied
[22] = Table 20, 90:8:2 PG:H2O:IPM donor solution (saturated), analyte: THC or intact prodrug as applied

## CCCCCc1cc(OC(=O)COCCOCCOCCOC)c2c(c1)OC(C)(C)[C@@H]1CCC(C)=C[C@@H]21 [ALL00117, Δ^9-Tetrahydrocannabinol 3,6,9,12-tetraoxatridecanoyl ester]
[1]; Table 15, 0.1 h
  % Prodrug at time (h): 100%
[1]; Table 15, 1 h
  % Prodrug at time (h): 35%
[1]; Table 15, 2.5 h
  % Prodrug at time (h): 7%
[1]; Table 15, 3.5 h
  % Prodrug at time (h): 5%
[2]; Table 2, 100% PG donor solution, analyte: THC from prodrug
  24 h skin conc: 1.1 ± 0.0 µmol/g
[2]; [3]
  24 h skin conc: 8.9 ± 7.1 µmol/g
[2]; Table 4, gel formulation
  24 h cumulative amt: 1.7 ± 0.0 nmol
  Flux: 0.07 ± 0.00 nmol/cm^2/h
[2]; [4]
  24 h skin conc: 0.7 ± 0.1 µmol/g
[2]; [5]
  24 h skin conc: 13.8 ± 4.1 µmol/g
[2]; [6]
  24 h cumulative amt: 0.7 ± 0.7 nmol
[2]; [7]
  24 h cumulative amt: 3.0 ± 0.3 nmol
  24 h skin conc: 7.3 ± 1.8 µmol/g
  Flux: 0.4 ± 0.1 nmol/cm^2/h
  Lag time: 15.1 ± 0.2 h
[2]; [8]
  Flux enhancement: 0.45
[2]; [9]
  24 h cumulative amt: 3.7 ± 1.0 nmol
  24 h skin conc: 7.3 ± 1.8 µmol/g
  Flux: 0.5 ± 0.1 nmol/cm^2/h
  Lag time: 15.4 ± 0.3 h

## CCCCCc1cc(OC(=O)CN(C)C)c2c(c1)OC(C)(C)[C@@H]1CCC(C)=C[C@@H]21 [ALL00118, Δ^9-Tetrahydrocannabinol N,N-dimethylglycyl ester]
[1]; Table 11, 0.1 h
  % Prodrug at time (h): 100%
[1]; Table 11, 1 h
  % Prodrug at time (h): 94%
[1]; Table 11, 22 h
  % Prodrug at time (h): 86%
[1]; Table 11, 24 h
  % Prodrug at time (h): 81%
[1]; Table 11, 42 h
  % Prodrug at time (h): 15%
[1]; Table 15, 0.1 h
  % Prodrug at time (h): 100%
[1]; Table 15, 1 h
  % Prodrug at time (h): 94%
[1]; Table 15, 2 h
  % Prodrug at time (h): 86%
[1]; Table 15, 2.5 h
  % Prodrug at time (h): 81%
[1]; Table 15, 24 h
  % Prodrug at time (h): 15%
[2]; Table 3, 1:1:1 PG:ethanol:H2O donor solution, analyte: THC from prodrug
  24 h skin conc: 7.1 ± 2.4 µmol/g
[2]; [10]
  24 h skin conc: 37.3 ± 23.2 µmol/g
[2]; [4]
  24 h skin conc: 65.9 ± 24.7 µmol/g
[2]; [5]
  24 h skin conc: 48.8 ± 30.2 µmol/g
[2]; [6]
  24 h cumulative amt: 5.6 ± 0.5 nmol
  24 h skin conc: 3.7 ± 0.6 µmol/g
  Flux: 0.4 ± 0.0 nmol/cm^2/h
  Lag time: 10.2 ± 0.3 h
[2]; [7]
  24 h cumulative amt: 5.8 ± 0.4 nmol
  24 h skin conc: 9.8 ± 5.2 µmol/g
  Flux: 0.5 ± 0.0 nmol/cm^2/h
  Lag time: 12.8 ± 0.1 h
[2]; [8]
  Flux enhancement: 0.90
[2]; [9]
  24 h cumulative amt: 11.4 ± 0.7 nmol
  24 h skin conc: 13.5 ± 5.8 µmol/g
  Flux: 0.9 ± 0.1 nmol/cm^2/h
  Lag time: 11.6 ± 0.2 h

## CCCCCc1cc(OC(=O)OCCOCCOCCOCCOC)c2c(c1)OC(C)(C)[C@@H]1CCC(C)=C[C@@H]21 [ALL00119, Δ^9-Tetrahydrocannabinol 3,6,9,12-tetraoxatridecyl carbonate]
[1]; Table 11, 0.1 h
  % Prodrug at time (h): 100%
[1]; Table 11, 1 h
  % Prodrug at time (h): 82%
[1]; Table 11, 22 h
  % Prodrug at time (h): 64%
[1]; Table 11, 24 h
  % Prodrug at time (h): 51%
[1]; Table 11, 42 h
  % Prodrug at time (h): 0%
[2]; [11]
  24 h skin conc: 13.6 ± 7.5 µmol/g
[2]; Table 9, 2.36:1.18:1 pH = 5.5 PG:ethanol:H2O donor solution, total THC equivalents (THC and/or prodrug)
  24 h skin conc: 13.6 ± 7.5 µmol/g

## CCCCCc1cc(OC(=O)C2CCCN2)c2c(c1)OC(C)(C)[C@@H]1CCC(C)=C[C@@H]21 (stereo partly drawn) [ALL00125, Δ^9-Tetrahydrocannabinol prolyl ester]
[1]; Table 11, 0.1 h
  % Prodrug at time (h): 100%
[1]; Table 11, 2 h
  % Prodrug at time (h): 77%
[1]; Table 11, 5 h
  % Prodrug at time (h): 55%
[1]; Table 11, 22 h
  % Prodrug at time (h): 0%
[1]; Table 11, 24 h
  % Prodrug at time (h): 0%
[1]; Table 11, 42 h
  % Prodrug at time (h): 0%

## CCCCCc1cc(OC(=O)OCCCCN)c2c(c1)OC(C)(C)[C@@H]1CCC(C)=C[C@@H]21 [ALL00127, Δ^9-Tetrahydrocannabinol 4-aminobutyl carbonate]
[1]; Table 15, 0.1 h
  % Prodrug at time (h): 100%
[1]; Table 15, 1 h
  % Prodrug at time (h): 100%
[1]; Table 15, 2.5 h
  % Prodrug at time (h): 91%
[1]; Table 15, 3.5 h
  % Prodrug at time (h): 85%

## CCCCCc1cc(OC(=O)[C@H](O)CO)c2c(c1)OC(C)(C)[C@@H]1CCC(C)=C[C@@H]21 [ALL00144, THC (R)-2,3-dihydroxypropanoate]
[2]; [12]
  24 h cumulative amt: 137.9 ± 55.2 nmol
  24 h skin conc: 65.5 ± 39.5 µmol/g
  Flux: 8.6 ± 3.4 nmol/cm^2/h
  Lag time: 7.2 ± 0.1 h

## CCCCCc1cc(O)c2c(c1)OC(C)(C)[C@@H]1CCC(C)=C[C@@H]21 [Δ^9-tetrahydrocannabinol, reference compound]
[2]; Table 2, 100% PG donor solution
  24 h cumulative amt: 6.91 ± 2.1 nmol
[2]; [3]
  24 h skin conc: 74.8 ± 15.5 µmol/g
[2]; [13]
  24 h cumulative amt: 9.0 ± 5.9 nmol
  Flux: 0.93 ± 0.58 nmol/cm^2/h
  Lag time: 13.0 ± 1.8 h
[2]; [10]
  24 h skin conc: 59.4 ± 30.5 µmol/g
[2]; Table 4, gel formulation
  24 h cumulative amt: 1.5 ± 0.3 nmol
  Flux: 0.14 ± 0.03 nmol/cm^2/h
  Lag time: 11.2 ± 2.7 h
[2]; [5]
  24 h skin conc: 100.4 ± 5.8 µmol/g
[2]; [14]
  24 h cumulative amt: 6.0 ± 2.1 nmol
  24 h skin conc: 133.8 ± 52.3 µmol/g
  Flux: 0.67 ± 0.15 nmol/cm^2/h
  Lag time: 8.9 ± 7.2 h
[2]; [15]
  24 h cumulative amt: 9.4 ± 0.2 nmol
  24 h skin conc: 24.1 ± 5.2 µmol/g
  Flux: 0.70 ± 0.01 nmol/cm^2/h
  Lag time: 6.9 ± 0.2 h
[2]; [16]
  24 h cumulative amt: 28.6 ± 3.2 nmol
  24 h skin conc: 17.4 ± 11.6 µmol/g
  Flux: 1.79 ± 0.39 nmol/cm^2/h
  Lag time: 6.4 ± 1.6 h
[2]; [17]
  24 h cumulative amt: 43.1 ± 4.8 nmol
  24 h skin conc: 75.2 ± 33.1 µmol/g
  Flux: 3.1 ± 0.2 nmol/cm^2/h
  Lag time: 9.0 ± 2.9 h
[2]; [18]
  24 h cumulative amt: 10.7 ± 2.1 nmol
  24 h skin conc: 40.9 ± 14.7 µmol/g
  Flux: 0.62 ± 0.23 nmol/cm^2/h
  Lag time: 5.3 ± 3.3 h
[2]; [11]
  24 h cumulative amt: 16.3 ± 7.3 nmol
  24 h skin conc: 16.1 ± 0.5 µmol/g
  Flux: 1.3 ± 0.5 nmol/cm^2/h
  Lag time: 11.4 ± 0.6 h
[2]; [19]
  24 h cumulative amt: 33.6 ± 11.2 nmol
  24 h skin conc: 7.4 ± 0.6 µmol/g
  Flux: 2.7 ± 1.1 nmol/cm^2/h
  Lag time: 10.8 ± 1.4 h
[2]; [20]
  24 h cumulative amt: 3.1 ± 0.8 nmol
  24 h skin conc: 3.6 ± 1.7 µmol/g
  Flux: 0.17 ± 0.02 nmol/cm^2/h
  Lag time: 4.6 ± 3.2 h
[2]; [7]
  24 h cumulative amt: 16.3 ± 0.3 nmol
  24 h skin conc: 6.1 ± 1.9 µmol/g
  Flux: 1.0 ± 0.3 nmol/cm^2/h
  Lag time: 5.8 ± 5.9 h
[2]; [21]
  24 h cumulative amt: 53.3 ± 0.0 nmol
  24 h skin conc: 17.4 ± 9.2 µmol/g
  Flux: 3.2 ± 0.0 nmol/cm^2/h
  Lag time: 6.2 ± 0.0 h
[2]; [12]
  24 h cumulative amt: 29.8 ± 3.3 nmol
  24 h skin conc: 23.3 ± 1.7 µmol/g
  Flux: 2.0 ± 0.3 nmol/cm^2/h
  Lag time: 8.7 ± 0.3 h
[2]; [22]
  24 h cumulative amt: 15.7 ± 4.5 nmol
  24 h skin conc: 8.5 ± 3.5 µmol/g
  Flux: 1.1 ± 0.3 nmol/cm^2/h
  Lag time: 9.0 ± 0.7 h

From patent US9957246B2, “Prodrugs of tetrahydrocannabinol, compositions comprising prodrugs of tetrahydrocannabinol and methods of using the same” (Zynerba Pharmaceuticals, Inc., priority 2007, dated 2018)
